The subject of one data set is LoVo. The data set is described as follows: MTT cell viability assay. The class given is cell-based, human. The following applies: Homo sapiens, LoVo colorectal cancer cells. The protocol:
(§1) The human colorectal cancer cell lines, HCT116 and LoVo, the breast cancer cell line, T47D, the hepatocellular carcinoma cell line, HepG2, the normal human liver cell line, HL7702, human umbilical vein endothelial cells (HUVECs), and the non-small cell lung cancer cell lines, A549, H1993, HCC827, H460, were purchased from the American Type Culture Collection (Manassas, VA, United States). Cell lines were cultured in the recommended RPMI-1640 medium (AE24464298, Hyclone, United States) and DMEM medium (AE29422278, Hyclone, United States) supplemented with 10% fetal bovine serum (FBS; JC63470, FB15015, Clark, United States) with 1% penicillin-streptomycin. Cells were maintained in an incubator at 37°C with 5% CO2 (HF90,Sanyo, Japan) and passaged every 48–72 h, after detaching with 0.25% trypsin (Sigma, United States). The compounds ZLDI-8 and NY-1 to -15 were synthesized in the laboratory of Dr. Huaiwei Ding in Shenyang Pharmaceutical University, and verified by high-performance liquid chromatography (purity >95%) for use in experiments (Supplementary Figure S1). Paclitaxel was purchased from MedChemExpress (HY-B0015, 99.97% purity, United States).
(§2) Cell viability was measured by the MTT assay. HCT116, HL7702, A549, H1993, HCC827, and H460 cells were dispensed into 96-well plates at a density of 1 × 10^5 cells/mL. After 24–48 h incubation, cells were treated with the compounds at different concentrations for the indicated periods. An assay kit (WLA073, Wanlei Co., Liaoning, China), was used according to the manufacturer’s instructions to measure LDH activity, The absorbance at 450 nm was measured with a microplate reader (Elx-800, Bio-Rad, China).
(§3) The preliminary antitumor activity of the series of ZLDI-8 derivatives, NY-1 to -15 was screened by the MTT cell viability assay. […] The antitumor activity of NY-2 on HCT116 cells was concentration- and time-dependent, and slightly better than that of the original compound, ZLDI-8.

The subject of another data set is HepG2. The data set is described as follows: MTT cell viability assay. The class given is cell-based, human. The following applies: Homo sapiens, HepG2 hepatocellular carcinoma cells. How it is done:
as §1, §2, §3

Data set [1] is described as follows: Stability of plasma samples (LC-MS/MS method validation). Type of data set: in vitro ADME, rat. Particulars: room temperature 12 h, auto-sampler 4°C 3 days, -20°C 14 days, three freeze-thaw cycles. The text has this: We used the online ADME prediction tool Swiss AMDE (http://www.swissadme.ch/index.php) (SwissADME, 2017) to analyze the physicochemical descriptors and ADME parameters of NY-2 and ZLDI-8, to predict their pharmacokinetic properties, drug-like nature, and medicinal chemistry. […] Male Sprague-Dawley rats weighing 240 ± 20 g were purchased from Liaoning Changsheng Biotechnology Co., Ltd. (Liaoning, China, animal license #SCXK-2015-0001). Rats were used for the tissue distribution and pharmacokinetics experiments because of their larger body fluid volume. The rats were fasted for 12 h before the experiment but allowed to drink water freely. […] Plasma samples were subjected to a protein precipitation method for the quantitative analysis of ZLDI-8 and NY-2 by LC-MS/MS (API 3200MD, AB Sciex, United States). […] The linear equation and correlation coefficient (r) of the regression curve were calculated from these concentrations and the corresponding […] data. The specificity, lower limit of quantification (LLOQ), linear range, precision, accuracy, matrix effects, extraction recovery, stability of analytes during the whole process of storage, as well as treatment in a biological matrix and solution were determined to verify the reliability of the compound concentrations in vivo. […]

Data set [2] in a line: Tissue distribution in rats. The class given is in vivo, SD rats. Particulars: for blood-brain barrier penetration: rat brain tissue concentration very low; for order of concentrations in tissues: 5 min after administration. The protocol:
After fasting for 12 h, 32 SD rats were randomly divided into eight groups of four rats each. Four groups were injected with ZLDI-8 via tail vein (6 mg/kg) at 5 min, 12, 24, and 48 h. The other four groups were injected with NY-2 (6 mg/kg) at the same time points. The heart, liver, spleen, lung, kidney, brain, muscle, and intestines were collected after cervical dislocation at the specified time points and tissue samples were removed. Samples were rinsed with normal saline at 0°C to remove residual blood and debris, blotted dry with filter paper, weighed, and stored at ˗20°C until used.

From publication PMC9884808, “Pharmacokinetics, tissue distribution, and antitumor activity of a novel compound, NY-2, in non-small cell lung cancer” (Frontiers in Pharmacology, 2023) come the findings set out here.

pIC50: −log10 of the molar value.

In the data set on LoVo, `Cc1ccc(OCCn2c(C)c(C=C3C(=O)NC(=S)NC3=O)c3ccccc32)c(C)c1` [ZLDI-8, reference compound] gave a negative logarithm of the IC50 (pIC50) of 5.02. The pIC50 in the data set with HepG2 was 4.64. Besides, the “stability of plasma samples” value in data set [1] is given as “stable under a variety of analytical conditions”. The blood-brain barrier penetration entry in data set [2] is reported as “do not readily penetrate the blood-brain barrier”. In addition, in data set [2] (rat, tail vein 6 mg/kg), the “concentration in the brain” value is recorded as “almost zero” and the “order of concentrations in tissues” value is recorded as “lung > liver > spleen > heart > kidney > intestines > brain > muscle”.
The compound `Cc1c(C=C2C(=O)NC(=S)NC2=O)c2ccccc2n1CCOc1ccc(F)cc1` [NY-2] gave a pIC50 in the data set with LoVo of 5.24. In the data set on HepG2, this compound gave a negative logarithm of the IC50 (pIC50) of 4.70. In addition, the “stability of plasma samples” value in data set [1] was “stable under a variety of analytical conditions”. The blood-brain barrier penetration result in data set [2] is on record as “do not readily penetrate the blood-brain barrier”. Further, in data set [2] (rat, tail vein 6 mg/kg), the “concentration in the brain” value is “almost zero”, the “tissue with the highest concentration” value is “highest in the lung” and the “order of concentrations in tissues” value is reported as “lung > liver > spleen > heart > kidney > intestines > brain > muscle”.
